Results on 13 compounds are retold here after ChEMBL document CHEMBL4130462, “Natural isoflavone biochanin A as a template for the design of new and potent 3-phenylquinolone efflux inhibitors against Mycobacterium avium” (Eur J Med Chem, 2017).

Series [1] concerns Mycobacterium avium. The series is described as follows: Antimycobacterial activity against Mycobacterium avium isolate MAV3 assessed as reduction in bacterial viability incubated for 3 days by MTT assay. Type of series: organism-based. The note with it: 72 h. On the technique in general: Formazan colour is commonly taken as a measure of viable cells.
Series [2] relates to Mycobacterium avium. The series is described as follows: Antimycobacterial activity against Mycobacterium avium isolate MAV4 assessed as reduction in bacterial viability incubated for 3 days by MTT assay. Type of series: organism-based. The note with it: 72 h.
Series [3] concerns Mycobacterium avium. Conditions: in vivo, 72 h.
Description: Antimycobacterial activity against Mycobacterium avium 104 mc'2 3 assessed as reduction in bacterial viability incubated for 3 days by MTT assay
Series [4] has as its system Mycobacterium avium. The series is described as follows: Antimycobacterial activity against Mycobacterium avium ATCC 25291 assessed as reduction in bacterial viability incubated for 3 days by MTT assay. The note with it: mycobacterium avium subsp. avium atcc 25291, 72 h. Type of series: organism-based.
Series [5] concerns Mycobacterium avium. Briefly: Antimycobacterial activity against Mycobacterium avium isolate MAV2 assessed as reduction in bacterial viability incubated for 3 days by MTT assay. The series is classed as organism-based. The note with it: 72 h.
For series [6], the system named is Mycobacterium avium. Conditions: in vivo, 72 h. This is another data set of the same source.
Description: Antimycobacterial activity against Mycobacterium avium 104 mc'2 4 assessed as reduction in bacterial viability incubated for 3 days by MTT assay
The test system of series [7] is Mycobacterium avium. The note with it: 72 h.
Description: Antimycobacterial activity against Mycobacterium avium 104 assessed as reduction in bacterial viability incubated for 3 days by MTT assay
Series [8] concerns Mycobacterium avium. The series is described as follows: Antimycobacterial activity against Mycobacterium avium isolate MAV1 assessed as reduction in bacterial viability incubated for 3 days by MTT assay. The series is classed as organism-based. Conditions: in vitro, 72 h.
Series [9] deals with Mycolicibacterium smegmatis. Briefly: Antimycobacterial activity against Mycobacterium smegmatis str. MC2 155 assessed as reduction in bacterial viability incubated for 3 days by MTT assay. The note with it: 72 h. Type of series: organism-based.
Series [10] relates to Mycolicibacterium smegmatis MC2 155. The series is described as follows: Inhibition of multidrug resistance efflux pump in Mycobacterium smegmatis str. MC2 155 assessed as increase in EtBr accumulation by measuring relative final fluorescence at <= 1/2 times MIC incubated for 60 mins by real-time fluorometry relative to control.
Series [11] in a line: Cytotoxicity in human monocyte-derived macrophages assessed as reduction in cell viability incubated for 3 days by alamar blue dye based assay. Conditions: for CC50 at 72 h: human monocyte-derived macrophages; for MTC: macrophage cell line, 72 h. More on the design: species or system Macrophage cell line. On the technique in general: The colour change of resazurin is a common sign of viable cells or microbes.

In series [12] the test system is Mycobacterium avium. The series is described as follows: Inhibition of multidrug resistance efflux pump in Mycobacterium avium 104 mc'2 3 assessed as increase in EtBr accumulation by measuring relative final fluorescence at 1/4 times MIC incubated for 60 mins by real-time fluorometry relative to control.
For series [13], the system named is Mycobacterium avium. Briefly: Inhibition of multidrug resistance efflux pump in Mycobacterium avium 104 assessed as increase in EtBr accumulation by measuring relative final fluorescence at 1/4 times MIC incubated for 60 mins by real-time fluorometry relative to control.
Series [14] has as its system Mycobacterium avium. Briefly: Inhibition of multidrug resistance efflux pump in Mycobacterium avium 104 mc'2 4 assessed as increase in EtBr accumulation by measuring relative final fluorescence at 1/4 times MIC incubated for 60 mins by real-time fluorometry relative to control.

The term CC50 denotes the concentration that lowers cell viability or growth by half.

≈ marks a conversion by molar mass, not a printed value.

For `CC[C@H]1OC(=O)[C@H](C)[C@@H](O[C@H]2C[C@@](C)(OC)[C@@H](O)[C@H](C)O2)[C@H](C)[C@@H](O[C@@H]2O[C@H](C)C[C@H](N(C)C)[C@H]2O)[C@](C)(O)C[C@@H](C)CN(C)[C@H](C)[C@@H](O)[C@]1(C)O` [AZITHROMYCIN], the MIC in [1] is 256 mg/L (≈ 342 µM); in series [2], 256 mg/L (≈ 342 µM); in [3], over 512 mg/L; in [4], 64 mg/L (≈ 85.4 µM); in series [5] it was over 512 mg/L; in [6], over 512 mg/L. For the same compound, the MIC in [7] was over 512 mg/L; in [8] it was 256 mg/L (≈ 342 µM).

As to `CCCOc1ccc(-c2cn(C)c3ccccc3c2=O)cc1`, the MIC in [9] is 256 mg/L (≈ 873 µM).

On to `CC[n+]1c(-c2ccccc2)c2cc(N)ccc2c2ccc(N)cc21.[Br-]` [HOMIDIUM BROMIDE], for which the MIC stood at 12.5 mg/L in series [1]; 50 mg/L in series [2]; 25 mg/L in series [3]; 50 mg/L in [4]; 12.5 mg/L in series [5]; 25 mg/L in series [6]. The MIC in [7] and in [8] was 25 mg/L throughout.

On to `CCCOc1ccc(-c2c[nH]c3ccccc3c2=O)cc1`, for which the MIC entry in series [3], in [9], in series [6] and in [7] was “Nd(Insoluble)” in each case.

Take `CCCOc1ccc(-c2cn(CCCN(C)C)c3ccccc3c2=O)cc1`: the MIC in series [3], in [9], in series [6] and in [7] was over 256 mg/L throughout. The Ratio in series [10] was found to be 1.38.

`COc1ccc(-c2coc3cc(O)cc(O)c3c2=O)cc1` [BIOCHANIN]: the CC50 at 72 h in [11] turned out to be 50.4 µM. Moreover, the MTC in [11] came to 20 µM. Also, the MIC in [3], in series [9], in series [6] and in series [7] was over 64 mg/L each time. For the same compound, the Ratio in series [10] was found to be 0.63.

For `COc1ccc(CCN(C)CCCC(C#N)(c2ccc(OC)c(OC)c2)C(C)C)cc1OC` (stereo not given), the half-maximal cytotoxic concentration (CC50) at 72 h in [11] worked out at 117 µM. Moreover, the MTC in series [11] amounted to 10 µM. Besides, the MIC in series [1] came out at 800 mg/L (≈ 1760 µM); in [2], 800 mg/L (≈ 1760 µM); in series [3] it was 800 mg/L (≈ 1760 µM); in series [9], 800 mg/L (≈ 1760 µM); in series [4], 800 mg/L (≈ 1760 µM); in series [5] it was 400 mg/L (≈ 880 µM). The results for the MIC in series [6], in series [7] and in series [8] were 800 mg/L (≈ 1760 µM), 800 mg/L (≈ 1760 µM) and 400 mg/L (≈ 880 µM), respectively.

As for `CC[C@H]1OC(=O)[C@H](C)[C@@H](O[C@H]2C[C@@](C)(OC)[C@@H](O)[C@H](C)O2)[C@H](C)[C@@H](O[C@@H]2O[C@H](C)C[C@H](N(C)C)[C@H]2O)[C@](C)(OC)C[C@@H](C)C(=O)[C@H](C)[C@@H](O)[C@]1(C)O` [CLARITHROMYCIN], the MIC was 16 mg/L (≈ 21.4 µM) in [1]; 8 mg/L (≈ 10.7 µM) in series [2]; over 512 mg/L in series [3]; 8 mg/L (≈ 10.7 µM) in series [4]; over 1024 mg/L in [5]; over 512 mg/L in series [6]. Also, the MIC in series [7] is 8 mg/L (≈ 10.7 µM); in [8], 4 mg/L (≈ 5.35 µM).

As for `CCCOc1ccc(-c2cn(CCN3CCN(Cc4ccccc4)CC3)c3ccccc3c2=O)cc1`, the Ratio in series [12] turned out to be 2.93; in series [13], 3.19; in series [14], 1.96. Besides, the MIC was 256 mg/L (≈ 532 µM) in series [3], 64 mg/L (≈ 133 µM) in [9], 256 mg/L (≈ 532 µM) in series [6] and 256 mg/L (≈ 532 µM) in [7].

Regarding `CCCOc1ccc(-c2cn(CCN3CCNCC3)c3ccccc3c2=O)cc1`, the MIC in [3], in series [9], in series [6] and in series [7] was over 256 mg/L throughout. For the same compound, the Ratio in [10] came to 1.42.

As to `O=C(O)c1cn(C2CC2)c2cc(N3CCNCC3)c(F)cc2c1=O` [CIPROFLOXACIN], the MIC in [1] turned out to be 32 mg/L (≈ 96.6 µM); in series [2], 32 mg/L (≈ 96.6 µM); in series [3], 16 mg/L (≈ 48.3 µM); in series [4], 32 mg/L (≈ 96.6 µM); in [5], 8 mg/L (≈ 24.1 µM); in [6] it was 16 mg/L (≈ 48.3 µM). Also, the MIC in [7] came out at 16 mg/L (≈ 48.3 µM); in series [8], 2 mg/L (≈ 6.04 µM).

For the compound `CC[C@H]1OC(=O)[C@H](C)[C@@H](O[C@H]2C[C@@](C)(OC)[C@@H](O)[C@H](C)O2)[C@H](C)[C@@H](O[C@@H]2O[C@H](C)C[C@H](N(C)C)[C@H]2O)[C@](C)(O)C[C@@H](C)C(=O)[C@H](C)[C@@H](O)[C@]1(C)O` [ERYTHROMYCIN], the MIC in series [1] was 512 mg/L (≈ 698 µM); in [2], 512 mg/L (≈ 698 µM); in [3], over 512 mg/L; in [5], over 512 mg/L; in series [6] it was over 512 mg/L.

`CC1COc2c(N3CCN(C)CC3)c(F)cc3c(=O)c(C(=O)O)cn1c23` (stereo not given) [OFLOXACIN]: the MIC in series [1] came to 16 mg/L (≈ 44.3 µM); in [2] it was 16 mg/L (≈ 44.3 µM); in series [3] it was 16 mg/L (≈ 44.3 µM); in series [4], 64 mg/L (≈ 177 µM); in series [5], 4 mg/L (≈ 11.1 µM); in [6] it was 16 mg/L (≈ 44.3 µM). For the same compound, the MIC was 16 mg/L (≈ 44.3 µM) in [7] and 4 mg/L (≈ 11.1 µM) in series [8].
